The target in one assay is PKR R510Q (Homo sapiens, UniProt P30613, R510Q). Description: PKR Mutant Assay, AC50 against PKR R510Q. The note with it: mutant PKR R510Q enzyme. The assay is classed as biochemical. The gist of the method:
(§1)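 Human PKR mutant enzyme (80-400 ng/well) was preincubated 60 min at room temperature with compound (11-point, 3-fold series from 100 μM top, 1% DMSO) in 100 mM KCl, 50 mM Tris pH 7.5, 5 mM MgCl2, 1 mM DTT, 0.03% BSA. ADP (0.22-1.65 mM) started the reaction, with PEP 0.1-0.5 mM.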

For the next assay, the target named is PKR R532W (Homo sapiens, UniProt P30613, R532W). Description: PKR Mutant Assay, AC50 against PKR R532W. The class given is biochemical. Conditions: mutant PKR R532W enzyme. The procedure, abridged:
as §1

Assay [1] concerns the target T1, PKR WT (Homo sapiens, UniProt P30613). Description: PKR WT enzymatic AC50 assay. Conditions: wild type PKR. The class given is biochemical. The procedure, abridged:
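Human PKR (WT or mutant, 80-400 ng/well) in 50 mM Tris pH 7.5, 100 mM KCl, 5 mM MgCl2, 1 mM DTT, 0.03% BSA with PEP 0.1-0.5 mM, NADH 180 uM and LDH, preincubated 60 min at room temperature with compound (11-point 3-fold series from 100 μM final, 1% DMSO). ADP 0.22-1.65 mM started reaction; A340 followed.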

The target in assay [2] is T1, PKR WT. Description: PKR WT cell based AC50 assay. The note with it: wild type PKR.

The record followed here is patent publication US9108921B2, “Therapeutic compounds and compositions” (AGIOS PHARMACEUTICALS, INC, priority 2014, dated 2015).

Molecules are shown by their SMILES.

Chain of PKR R510Q (P30613 whole entry R510Q): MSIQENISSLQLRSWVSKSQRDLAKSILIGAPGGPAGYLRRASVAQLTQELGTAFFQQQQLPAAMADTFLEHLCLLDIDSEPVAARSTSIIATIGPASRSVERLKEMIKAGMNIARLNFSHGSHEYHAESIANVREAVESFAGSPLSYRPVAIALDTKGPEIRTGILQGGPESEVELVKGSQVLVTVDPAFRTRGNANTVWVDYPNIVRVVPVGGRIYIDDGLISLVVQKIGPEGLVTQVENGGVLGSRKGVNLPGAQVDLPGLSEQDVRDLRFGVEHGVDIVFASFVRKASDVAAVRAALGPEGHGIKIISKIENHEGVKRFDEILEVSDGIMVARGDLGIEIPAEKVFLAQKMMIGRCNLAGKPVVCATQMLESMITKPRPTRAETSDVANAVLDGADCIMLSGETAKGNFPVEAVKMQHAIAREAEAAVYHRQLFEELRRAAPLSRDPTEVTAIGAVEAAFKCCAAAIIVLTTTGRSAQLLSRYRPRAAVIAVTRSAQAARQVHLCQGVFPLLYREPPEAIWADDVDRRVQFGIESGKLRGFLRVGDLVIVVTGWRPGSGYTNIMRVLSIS
T1 sequence (P30613 whole entry): as the sequence (P30613 whole entry R510Q) above, with Q510R counted along it
Chain of PKR R532W (P30613 whole entry R532W): as the sequence (P30613 whole entry R510Q) above, with Q510R, R532W counted along it

For the molecule `O=C(c1ccc(NS(=O)(=O)c2cccc3cccnc23)cc1)N1CCC(O)(c2ccccc2Cl)CC1` [Compound 122, N-(4-(4-(2-chlorophenyl)-4-hydroxypiperidine-1-carbonyl)phenyl)quinoline-8-sulfonamide], the AC50 on PKR R510Q, at PKR R532W, at PKR WT [1] and on PKR WT [2] was under 100 nM each time.

Regarding `Cc1cc(C(=O)N2CCC(O)(Cc3ccccc3)CC2)ccc1NS(=O)(=O)c1cccc2cccnc12` [Compound 101, N-(4-(4-benzyl-4-hydroxypiperidine-1-carbonyl)-2-methylphenyl)quinoline-8-sulfonamide], the AC50 on PKR R510Q, on PKR R532W, at PKR WT [1] and on PKR WT [2] was under 100 nM each time.

As to `O=C(c1ccc(NS(=O)(=O)c2cccc3cccnc23)cc1)N1CCC(O)(c2ccccc2O)CC1` [Compound 228, N-[4-[4-hydroxy-4-(2-hydroxyphenyl)piperidine-1-carbonyl]phenyl]quinoline-8-sulfonamide], the half-maximal activity concentration (AC50) was 1010 to 10000 nM on PKR R510Q, under 100 nM at PKR R532W, 101 to 1000 nM at PKR WT [1] and under 100 nM on PKR WT [2].

For the molecule `COCCC1(O)CCN(C(=O)c2ccc(NS(=O)(=O)c3cccc4cccnc34)cc2)CC1` [Compound 225, N-[4-[4-hydroxy-4-(2-methoxyethyl)piperidine-1-carbonyl]phenyl]quinoline-8-sulfonamide], the AC50 at PKR R510Q is 101 to 1000 nM; on PKR R532W, 101 to 1000 nM; on PKR WT [1] it was under 100 nM; on PKR WT [2], 101 to 1000 nM.

`Nc1c(O)cccc1S(=O)(=O)Nc1ccc(C(=O)N2CCC(O)(c3ccccc3Cl)CC2)cc1` [Compound 382, 2-amino-N-(4-(4-(2-chlorophenyl)-4-hydroxypiperidine-1-carbonyl)phenyl)-3-hydroxybenzenesulfonamide]: the AC50 at PKR R510Q is 101 to 1000 nM; at PKR R532W, 101 to 1000 nM; at PKR WT [1] it was under 100 nM; on PKR WT [2] it was under 100 nM.

Consider `O=C(c1ccc(NS(=O)(=O)c2cccc3cccnc23)cc1)N1CCC(O)(Cc2cccc(F)n2)CC1` [Compound 146, N-(4-(4-((6-fluoropyridin-2-yl)methyl)-4-hydroxypiperidine-1-carbonyl)phenyl)quinoline-8-sulfonamide], for which the AC50 at PKR R510Q was 101 to 1000 nM; on PKR R532W it was under 100 nM; on PKR WT [1] it was under 100 nM; at PKR WT [2] it was under 100 nM.

For `O=C(c1ccc(NS(=O)(=O)c2cccc3cccnc23)c(F)c1)N1CCC(O)(Cc2ccccc2)CC1` [Compound 163, N-(4-(4-benzyl-4-hydroxypiperidine-1-carbonyl)-2-fluorophenyl)quinoline-8-sulfonamide], the AC50 on PKR R510Q was 101 to 1000 nM; on PKR R532W, under 100 nM; on PKR WT [1], under 100 nM; at PKR WT [2], under 100 nM.

With `CC(C)(C)CC1(O)CCN(C(=O)c2ccc(NS(=O)(=O)c3cccc4nccnc34)cc2)CC1` [Compound 130, N-(4-(4-hydroxy-4-neopentylpiperidine-1-carbonyl)phenyl)quinoxaline-5-sulfonamide], the AC50 on PKR R510Q, on PKR R532W, on PKR WT [1] and at PKR WT [2] was under 100 nM each time.

Turning to `O=C(c1ccc(NS(=O)(=O)c2cccc3cccnc23)cc1F)N1CCC(O)(c2ccccc2Cl)CC1` [Compound 193, N-(4-(4-(2-chlorophenyl)-4-hydroxypiperidine-1-carbonyl)-3-fluorophenyl)quinoline-8-sulfonamide], the AC50 is 101 to 1000 nM on PKR R510Q, under 100 nM at PKR R532W, under 100 nM at PKR WT [1] and under 100 nM at PKR WT [2].

As for `O=C(c1ccc(NS(=O)(=O)c2cccc3scnc23)cc1)N1CCC(O)(Cc2ccccc2C(F)(F)F)CC1` [Compound 412, N-(4-(4-hydroxy-4-(2-(trifluoromethyl)benzyl)piperidine-1-carbonyl)phenyl)benzo[d]thiazole-4-sulfonamide], the AC50 on PKR R510Q was 101 to 1000 nM; on PKR R532W it was under 100 nM; at PKR WT [1], under 100 nM; on PKR WT [2] it was 101 to 1000 nM.

As for `Nc1nc2c(S(=O)(=O)Nc3ccc(C(=O)N4CCC(O)(CCC(F)(F)F)CC4)cc3)cccc2s1` [Compound 430], the AC50 at PKR R510Q was 101 to 1000 nM; at PKR R532W, under 100 nM; at PKR WT [1], under 100 nM; on PKR WT [2], 101 to 1000 nM.

For `O=C(c1ccc(NS(=O)(=O)c2cccc3cccnc23)cc1)N1CCC(O)(Cc2c(F)cccc2F)CC1` [Compound 120, N-(4-(4-(2,6-difluorobenzyl)-4-hydroxypiperidine-1-carbonyl)phenyl)quinoline-8-sulfonamide], the AC50 at PKR R510Q, at PKR R532W, on PKR WT [1] and at PKR WT [2] was under 100 nM each time.

In the case of `CC(C)CC1(O)CCN(C(=O)c2ccc(NS(=O)(=O)c3cccc4cccnc34)cc2)CC1` [Compound 140, N-(4-(4-hydroxy-4-isobutylpiperidine-1-carbonyl)phenyl)quinoline-8-sulfonamide], the AC50 at PKR R510Q, at PKR R532W, on PKR WT [1] and at PKR WT [2] was under 100 nM throughout.

Consider `O=C(c1ccc(NS(=O)(=O)c2cccc3c(O)ncnc23)cc1)N1CCC(O)(CCCC(F)(F)F)CC1` [Compound 427], for which the AC50 on PKR R510Q, on PKR R532W, at PKR WT [1] and at PKR WT [2] was under 100 nM in each case.

`O=C(c1ccc(NS(=O)(=O)c2cc(F)cc3scnc23)cc1)N1CCC(O)(c2ccccc2Cl)CC1` [Compound 401, N-(4-(4-(2-chlorophenyl)-4-hydroxypiperidine-1-carbonyl)phenyl)-6-fluorobenzo[d]thiazole-4-sulfonamide]: the AC50 is 101 to 1000 nM at PKR R510Q, under 100 nM on PKR R532W, under 100 nM on PKR WT [1] and 101 to 1000 nM at PKR WT [2].

On to `CC(C)(C)C1(O)CCN(C(=O)c2ccc(NS(=O)(=O)c3cccc4cccnc34)cc2)CC1` [Compound 195, N-(4-(4-(tert-butyl)-4-hydroxypiperidine-1-carbonyl)phenyl)quinoline-8-sulfonamide], for which the AC50 on PKR R510Q was 101 to 1000 nM; at PKR R532W, under 100 nM; on PKR WT [1], under 100 nM; on PKR WT [2], under 100 nM.

As to `O=C(c1ccc(NS(=O)(=O)c2cccc3cccnc23)cc1)N1CCC(O)(c2cnsc2)CC1` [Compound 180], the AC50 on PKR R510Q was 101 to 1000 nM; at PKR R532W it was under 100 nM; on PKR WT [1], under 100 nM; at PKR WT [2], under 100 nM.

Turning to `O=C(c1ccc(NS(=O)(=O)c2cccc3cccnc23)cc1)N1CCC(O)(c2ccccc2F)CC1` [Compound 165, N-(4-(4-(2-fluorophenyl)-4-hydroxypiperidine-1-carbonyl)phenyl)quinoline-8-sulfonamide], the AC50 was 101 to 1000 nM at PKR R510Q, under 100 nM on PKR R532W, under 100 nM on PKR WT [1] and under 100 nM on PKR WT [2].

Take `O=C(c1ccc(NS(=O)(=O)c2cccc3cccnc23)cc1)N1CCC(O)(c2ccccc2C(F)(F)F)CC1` [Compound 126, N-(4-(4-hydroxy-4-(2-(trifluoromethyl)phenyl)piperidine-1-carbonyl)phenyl)quinoline-8-sulfonamide]: the AC50 on PKR R510Q, at PKR R532W, on PKR WT [1] and at PKR WT [2] was under 100 nM throughout.

Broadly, the AC50 is the concentration at which the activity in the assay is half-maximal. Low values mean greater potency, high ones weaker potency.
